What was measured:
Test in all cases: relative viability (nuclei count vs DMSO), 5 days (fraction); higher = more cells survive
EMC-BAC-2 = test system: EMC-BAC-2
Method in brief: (§1)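 Each reported value is a median over duplicate plates. It expresses relative viability: treated-well nuclei count divided by vehicle-well nuclei count. Lung cancer cell lines in 1536-well plates were dosed by pin tool a day after seeding, alone with one drug or with a fixed anchor-drug dose plus five library-drug doses (not always all listed) in √10 steps, and nuclei were counted after 5 days.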

NCI-H1993 = test system: NCI-H1993
Method in brief: as §1

ABC-1 = test system: ABC-1
Method in brief: as §1

NCI-H1395 = test system: NCI-H1395
Method in brief: as §1

NCI-H358 = test system: NCI-H358
Method in brief: as §1

HARA = test system: HARA
Method in brief: as §1

LC-2-ad = test system: LC-2-ad
Method in brief: as §1

ChaGo-K-1 = test system: ChaGo-K-1
Method in brief: as §1

NCI-H1944 = test system: NCI-H1944
Method in brief: as §1

NCI-H838 = test system: NCI-H838
Method in brief: as §1

NCI-H1793 = test system: NCI-H1793
Method in brief: as §1

NCI-H2126 = test system: NCI-H2126
Method in brief: as §1

HCC-15 = test system: HCC-15
Method in brief: as §1

NCI-H23 = test system: NCI-H23
Method in brief: as §1

NCI-H2405 = test system: NCI-H2405
Method in brief: as §1

HCC-78 = test system: HCC-78
Method in brief: as §1

HOP-62 = test system: HOP-62
Method in brief: as §1

HCC-366 = test system: HCC-366
Method in brief: as §1

In the case of `O=c1cc(N2CCOCC2)oc2c(-c3cccc4c3sc3ccccc34)cccc12` + NC(=O)Nc1cc(-c2cccc(F)c2)sc1C(=O)N[C@H]1CCCNC1 [AZD7762] (partner 0.2 µM), the relative viability (EMC-BAC-2; first compound 0.01 µM) is reported as 1.09, the relative viability (EMC-BAC-2; first compound 0.03162 µM) is reported as 1.17 and the relative viability (EMC-BAC-2; first compound 0.1 µM) is reported as 1.19. It also gave a relative viability (EMC-BAC-2; first compound 0.3162 µM) of 1.14, a relative viability (EMC-BAC-2; first compound 1 µM) of 1.11 and a relative viability (NCI-H1993; first compound 0.01 µM) of 0.832. It also gave a relative viability (NCI-H1993; first compound 0.03162 µM) of 0.764, a relative viability (NCI-H1993; first compound 0.1 µM) of 0.779 and a relative viability (NCI-H1993; first compound 0.3162 µM) of 0.692. For the same compound, the relative viability (NCI-H1993; first compound 1 µM) was 0.715, the relative viability (ABC-1; first compound 0.01 µM) was 0.819 and the relative viability (ABC-1; first compound 0.03162 µM) was 0.774. It also gave a relative viability (ABC-1; first compound 0.1 µM) of 0.695, a relative viability (ABC-1; first compound 0.3162 µM) of 0.694 and a relative viability (ABC-1; first compound 1 µM) of 0.848. It also gave a relative viability (NCI-H1395; first compound 0.03162 µM) of 0.403, a relative viability (NCI-H1395; first compound 0.1 µM) of 0.357 and a relative viability (NCI-H1395; first compound 0.3162 µM) of 0.428. For the same compound, the relative viability (NCI-H1395; first compound 1 µM) was 0.372, the relative viability (NCI-H358; first compound 0.01 µM) was 0.49 and the relative viability (NCI-H358; first compound 0.03162 µM) was 0.517. The relative viability (NCI-H358; first compound 0.1 µM) was 0.354, the relative viability (NCI-H358; first compound 0.3162 µM) was 0.445 and the relative viability (NCI-H358; first compound 1 µM) was 0.519. For the same compound, the relative viability (HARA; first compound 0.01 µM) was 0.501, the relative viability (HARA; first compound 0.03162 µM) was 0.303 and the relative viability (HARA; first compound 0.1 µM) was 0.302. For the same compound, the relative viability (HARA; first compound 0.3162 µM) was 0.343, the relative viability (HARA; first compound 1 µM) was 0.357 and the relative viability (LC-2-ad; first compound 0.01 µM) was 0.815. For the same compound, the relative viability (LC-2-ad; first compound 0.03162 µM) was 0.777, the relative viability (LC-2-ad; first compound 0.1 µM) was 0.831 and the relative viability (LC-2-ad; first compound 0.3162 µM) was 0.817. For the same compound, the relative viability (LC-2-ad; first compound 1 µM) was 0.785, the relative viability (ChaGo-K-1; first compound 0.01 µM) was 0.847 and the relative viability (ChaGo-K-1; first compound 0.03162 µM) was 0.898. The relative viability (ChaGo-K-1; first compound 0.1 µM) was 0.6, the relative viability (ChaGo-K-1; first compound 0.3162 µM) was 0.831 and the relative viability (ChaGo-K-1; first compound 1 µM) was 0.938. The relative viability (NCI-H1944; first compound 0.01 µM) was 0.541, the relative viability (NCI-H1944; first compound 0.03162 µM) was 0.527 and the relative viability (NCI-H1944; first compound 0.1 µM) was 0.481. For the same compound, the relative viability (NCI-H1944; first compound 0.3162 µM) was 0.528, the relative viability (NCI-H1944; first compound 1 µM) was 0.438 and the relative viability (NCI-H838; first compound 0.01 µM) was 0.918. The relative viability (NCI-H838; first compound 0.03162 µM) was 0.963, the relative viability (NCI-H838; first compound 0.1 µM) was 0.934 and the relative viability (NCI-H838; first compound 0.3162 µM) was 0.93. For the same compound, the relative viability (NCI-H838; first compound 1 µM) was 0.924, the relative viability (NCI-H1793; first compound 0.01 µM) was 0.593 and the relative viability (NCI-H1793; first compound 0.03162 µM) was 0.38. For the same compound, the relative viability (NCI-H1793; first compound 0.1 µM) was 0.233, the relative viability (NCI-H1793; first compound 0.3162 µM) was 0.505 and the relative viability (NCI-H1793; first compound 1 µM) was 0.464. The relative viability (NCI-H2126; first compound 0.01 µM) was 0.982, the relative viability (NCI-H2126; first compound 0.03162 µM) was 0.97 and the relative viability (NCI-H2126; first compound 0.1 µM) was 1.12. It also gave a relative viability (NCI-H2126; first compound 0.3162 µM) of 0.981, a relative viability (NCI-H2126; first compound 1 µM) of 1.02 and a relative viability (HCC-15; first compound 0.01 µM) of 1.23. It also gave a relative viability (HCC-15; first compound 0.03162 µM) of 1.46, a relative viability (HCC-15; first compound 0.1 µM) of 1.3 and a relative viability (HCC-15; first compound 0.3162 µM) of 1.26. The relative viability (HCC-15; first compound 1 µM) was 1.54, the relative viability (NCI-H23; first compound 0.01 µM) was 0.306 and the relative viability (NCI-H23; first compound 0.03162 µM) was 0.309. The relative viability (NCI-H23; first compound 0.3162 µM) was 0.307, the relative viability (NCI-H23; first compound 1 µM) was 0.272 and the relative viability (NCI-H2405; first compound 0.01 µM) was 0.7. It also gave a relative viability (NCI-H2405; first compound 0.03162 µM) of 0.727, a relative viability (NCI-H2405; first compound 0.1 µM) of 0.552 and a relative viability (NCI-H2405; first compound 0.3162 µM) of 0.787. For the same compound, the relative viability (NCI-H2405; first compound 1 µM) was 0.827, the relative viability (HCC-78; first compound 0.01 µM) was 0.629 and the relative viability (HCC-78; first compound 0.03162 µM) was 0.616. It also gave a relative viability (HCC-78; first compound 0.1 µM) of 0.354, a relative viability (HCC-78; first compound 0.3162 µM) of 0.615 and a relative viability (HCC-78; first compound 1 µM) of 0.5. It also gave a relative viability (HOP-62; first compound 0.01 µM) of 0.514, a relative viability (HOP-62; first compound 0.03162 µM) of 0.574 and a relative viability (HOP-62; first compound 0.1 µM) of 0.188. For the same compound, the relative viability (HOP-62; first compound 0.3162 µM) was 0.745, the relative viability (HOP-62; first compound 1 µM) was 0.689 and the relative viability (HCC-366; first compound 0.01 µM) was 0.247. It also gave a relative viability (HCC-366; first compound 0.03162 µM) of 0.286, a relative viability (HCC-366; first compound 0.1 µM) of 0.127 and a relative viability (HCC-366; first compound 0.3162 µM) of 0.287. The relative viability (HCC-366; first compound 1 µM) was 0.288.

From the supplement of paper PMC10307832
